From paper PMC6874179, “Development of Macrocycle Kinase Inhibitors for ALK2 Using Fibrodysplasia Ossificans Progressiva‐Derived Endothelial Cells” (JBMR Plus, 2019)
Read-outs that look alike come from different tables or passages of the source.

Key:
TBR2 = molecular target: T1, TBR2 (Homo sapiens, UniProt P37173); experiment: DiscoverX Kd determination; assay type: binding
T1 construct: T7 phage fusion (or DNA tag for qPCR if made in HEK-293); purchased DiscoverX; host or cells: E. coli (T7 phage) or HEK-293
T1 sequence (P37173 23-567): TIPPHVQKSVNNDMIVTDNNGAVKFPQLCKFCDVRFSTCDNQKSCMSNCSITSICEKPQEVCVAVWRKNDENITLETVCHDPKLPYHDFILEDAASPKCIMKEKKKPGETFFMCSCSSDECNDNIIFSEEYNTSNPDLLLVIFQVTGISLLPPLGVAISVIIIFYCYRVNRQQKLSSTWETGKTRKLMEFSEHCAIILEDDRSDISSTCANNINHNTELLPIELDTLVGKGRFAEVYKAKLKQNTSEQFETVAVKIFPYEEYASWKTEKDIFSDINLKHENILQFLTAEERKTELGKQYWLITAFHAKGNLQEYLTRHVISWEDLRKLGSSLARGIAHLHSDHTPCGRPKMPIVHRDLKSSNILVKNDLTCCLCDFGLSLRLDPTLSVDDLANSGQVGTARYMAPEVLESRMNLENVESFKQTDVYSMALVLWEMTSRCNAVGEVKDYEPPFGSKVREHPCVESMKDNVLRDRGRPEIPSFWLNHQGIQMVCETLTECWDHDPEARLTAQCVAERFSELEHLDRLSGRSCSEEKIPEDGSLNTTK
Experimental: DiscoverX Kd determination: For most assays, kinase-tagged T7 phage strains were prepared in an E. coli host derived from the BL21 strain. E. coli were grown to log-phase and infected with T7 phage and incubated with shaking at 32°C until lysis. The lysates were centrifuged and filtered to remove cell debris. The remaining kinases were produced in HEK-293 cells and subsequently tagged with DNA for qPCR detection. […] The liganded beads were blocked with excess biotin and washed with blocking buffer (SeaBlock (Pierce), 1% BSA, 0.05% Tween 20, 1 mM DTT) to remove unbound ligand and to reduce non-specific binding. […] Kds were determined using an 11-point 3-fold compound dilution series with three DMSO control points. […] The compounds were then diluted directly into the assays such that the final concentration of DMSO was 0.9%. All reactions performed in polypropylene 384-well plate. Each was a final volume of 0.02 ml. […] The kinase concentration in the eluates was measured by qPCR. An 11-point 3-fold serial dilution of each test compound was prepared in 100% DMSO at 100x final test concentration and subsequently diluted to 1x in the assay (final DMSO concentration = 1%). Most Kds were determined using a compound top concentration = 30.000 nM. […] Binding constants (Kds) were calculated with a standard dose-response curve using the Hill equation: Response = Background + Signal – Background 1 + (KdHill Slope / DoseHill Slope). The Hill Slope was set to -1. Curves were fitted using a non-linear least square fit with the Levenberg-Marquardt algorithm.

ACVR2A = molecular target: T2, ACVR2A (Homo sapiens, UniProt P27037); experiment: DiscoverX Kd determination; assay type: binding
T2 construct: T7 phage fusion (or DNA tag for qPCR if made in HEK-293); purchased DiscoverX; host or cells: E. coli (T7 phage) or HEK-293
T2 sequence (P27037 20-513): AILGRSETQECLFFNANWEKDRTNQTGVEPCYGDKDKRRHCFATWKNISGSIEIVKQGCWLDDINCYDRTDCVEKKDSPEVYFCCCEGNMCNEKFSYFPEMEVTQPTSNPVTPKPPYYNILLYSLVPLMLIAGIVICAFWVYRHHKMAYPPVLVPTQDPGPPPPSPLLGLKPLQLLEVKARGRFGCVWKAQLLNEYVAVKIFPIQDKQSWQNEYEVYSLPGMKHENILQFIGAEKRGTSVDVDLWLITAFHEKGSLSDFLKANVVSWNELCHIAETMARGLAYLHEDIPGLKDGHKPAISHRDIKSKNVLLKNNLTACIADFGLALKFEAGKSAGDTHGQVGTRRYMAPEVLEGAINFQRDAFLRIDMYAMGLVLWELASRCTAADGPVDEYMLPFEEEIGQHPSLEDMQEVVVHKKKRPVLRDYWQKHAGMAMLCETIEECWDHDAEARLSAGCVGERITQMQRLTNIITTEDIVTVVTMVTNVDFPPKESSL
Experimental: (§1) DiscoverX Kd determination: For most assays, kinase-tagged T7 phage strains were prepared in an E. coli host derived from the BL21 strain. E. coli were grown to log-phase and infected with T7 phage and incubated with shaking at 32°C until lysis. The lysates were centrifuged and filtered to remove cell debris. The remaining kinases were produced in HEK-293 cells and subsequently tagged with DNA for qPCR detection. Streptavidin-coated magnetic beads were treated with biotinylated small molecule ligands for 30 minutes at room temperature to generate affinity resins for kinase assays. The liganded beads were blocked with excess biotin and washed with blocking buffer (SeaBlock (Pierce), 1% BSA, 0.05% Tween 20, 1 mM DTT) to remove unbound ligand and to reduce non-specific binding. […] Test compounds were prepared as 111X stocks in 100% DMSO. Kds were determined using an 11-point 3-fold compound dilution series with three DMSO control points. […] The compounds were then diluted directly into the assays such that the final concentration of DMSO was 0.9%. All reactions performed in polypropylene 384-well plate. Each was a final volume of 0.02 ml. […] The kinase concentration in the eluates was measured by qPCR. An 11-point 3-fold serial dilution of each test compound was prepared in 100% DMSO at 100x final test concentration and subsequently diluted to 1x in the assay (final DMSO concentration = 1%). Most Kds were determined using a compound top concentration = 30.000 nM. […] Binding constants (Kds) were calculated with a standard dose-response curve using the Hill equation: Response = Background + Signal – Background 1 + (KdHill Slope / DoseHill Slope). The Hill Slope was set to -1. Curves were fitted using a non-linear least square fit with the Levenberg-Marquardt algorithm.

ACVR2B = molecular target: T3, ACVR2B (Homo sapiens, UniProt Q13705); experiment: DiscoverX Kd determination; assay type: binding
T3 construct: T7 phage fusion (or DNA tag for qPCR if made in HEK-293); purchased DiscoverX; host or cells: E. coli (T7 phage) or HEK-293
T3 sequence (Q13705 19-512): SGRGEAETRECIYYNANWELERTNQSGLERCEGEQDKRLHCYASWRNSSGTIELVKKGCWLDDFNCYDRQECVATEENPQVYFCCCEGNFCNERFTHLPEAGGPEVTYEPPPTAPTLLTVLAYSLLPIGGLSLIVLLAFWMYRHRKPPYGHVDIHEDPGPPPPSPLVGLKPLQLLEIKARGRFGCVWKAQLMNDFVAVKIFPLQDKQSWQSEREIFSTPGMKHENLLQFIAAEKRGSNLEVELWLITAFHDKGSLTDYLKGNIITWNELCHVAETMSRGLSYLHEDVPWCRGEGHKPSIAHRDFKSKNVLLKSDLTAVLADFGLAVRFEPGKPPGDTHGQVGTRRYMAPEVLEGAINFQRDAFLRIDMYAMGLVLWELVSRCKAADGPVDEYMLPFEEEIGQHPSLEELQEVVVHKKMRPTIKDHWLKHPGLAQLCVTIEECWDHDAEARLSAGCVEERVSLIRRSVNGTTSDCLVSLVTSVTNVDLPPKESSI
Experimental: as §1

Chromlog D = assay type: physicochemical
Text: Supplement JBM4-3-na-s005.docx, table 3: Table S3. Solubility and metabolic clearance of selected macrocyclic inhibitors. | column: Chromlog D

[1] = Microsomal incubations, mLM; assay type: in vitro ADME; details: mouse, liver microsomes, pH 7.4; microsomes 0.5 mg/ml, 0.5 μM compound; read-out: Metabolic clearance mLM
FOP ECFCs = experiment: Osteogenic differentiation (mineralization) of FOP ECFCs; assay type: cell-based, human; details: osteogenic conditions, Alizarin Red; for Effect on BMP-6-induced osteogenic differentiation: BMP-6 50 ng/mL; for Effect on activin A-induced osteogenic differentiation: activin A 50 ng/mL
Experimental: For mineralization assays, 5 × 10^4 ECs were seeded into 48‐well plates and incubated in osteogenic medium containing 10^−8M/L dexamethasone, 0.2mM/L ascorbic acid, and 10mM/L β‐glycerolphosphate in the presence of BMP/ TGF‐β ligands for 28 days. The medium was refreshed every 4 days. Afterwards, cells were washed twice with PBS and fixed with 3.7% formaldehyde for 5 min. Next, cells were washed twice with distilled water; measurement of calcium deposition was performed by Alizarin Red solution (ARS) staining, as previously described.16 Precipitates, originated from three independent ARS assays, were dissolved using 10% cetylpyridinium chloride, and absorbance was measured at 570 nm. Representative pictures were obtained using a Leica DMIL LED microscope (Leica, Wetzlar, Germany) with 10× magnification.
Cells were incubated for 21 days in chondrogenic medium containing BMP‐6 or activin A (50 ng/mL) and LDN‐193189, OD36, or OD52 at 0.5μM, prior to Alcian Blue staining. (B) Quantification of Fig. 6 A by absorbance, after solubilization with guanidine hydrochloride. (C) Chondrogenic gene expression analysis of collagen 2 (Col2), Sox9, Matrix metalloproteinase 13 (Mmp13), and collagen X (Col X) in ATDC5 cells corresponding to (A). (D) Western blot of a representative clone of FOP endothelial colony‐forming cells (ECFCs) incubated with LDN‐193189, OD36, or OD52 (0.5μM) prior to stimulation with BMP‐6 (50 ng/mL) or activin A (50 ng/mL). (E) Expression of the BMP target genes ID1 and ID3 by qPCR in FOP ECFCs stimulated with BMP‐6 (50 ng/mL) or activin A (50 ng/mL) in the presence of the indicated compounds at 0.5μM. (F) Alizarin Red solution staining on a representative clone of FOP ECFCs incubated under osteogenic conditions with BMP‐6 (50 ng/mL) or activin A (50 ng/mL) and the indicated compounds. (G) Quantification of Fig. 6 F by absorbance, after solubilization with cetylpyridinium. (H) Osteogenic genes Collagen 1 alpha 1 (Col1a1), Runx2, and osterix (Osx) expression in a representative clone of FOP ECFCs incubated under osteogenic conditions with BMP‐6 (50 ng/mL) or activin A (50 ng/mL) and LDN‐193189, OD36, or OD52 (0.5 μM). *p < 0.05, **p < 0.01, ***p < 0.001.

SMILES: Clc1cc2cc(c1)-c1cnn3ccc(nc13)NCCOCCO2 [OD36]
- Kd (TBR2; read-out: Kd in nM TBR2): 680 nM
- Kd (ACVR2A): 3000 nM
- Kd (ACVR2B): 90 nM
- chromatographic logD (Chromlog D): 5.4
- microsomal CLint at 0.5 μM [1]: 207 µL/min/mg
- Effect on BMP-6-induced osteogenic differentiation (FOP ECFCs): modest effect
- Effect on activin A-induced osteogenic differentiation (FOP ECFCs): efficiently blocked

SMILES: c1ccc2c(-c3cnn4cc(-c5ccc(N6CCNCC6)cc5)cnc34)ccnc2c1 [LDN-193189, reference compound]
- Kd (TBR2): 26 nM
- Kd (ACVR2A): 12 nM
- Kd (ACVR2B): 11 nM
- chromatographic logD (Chromlog D): 2.7
- microsomal CLint at 0.5 μM [1]: 95 µL/min/mg
- Effect on activin A-induced osteogenic differentiation (FOP ECFCs): inhibited

SMILES: Cc1cc2cc(c1)-c1cnn3ccc(nc13)NCCNC(=O)CCN(C)C2 [OD52]
- Kd (TBR2; read-out: Kd in nM TBR2): 2500 nM
- Kd (ACVR2A): 590 nM
- Kd (ACVR2B): 220 nM
- chromatographic logD (Chromlog D): 3.9
- microsomal CLint at 0.5 μM [1]: 84 µL/min/mg
- Effect on BMP-6-induced osteogenic differentiation (FOP ECFCs): modest effect
- Effect on activin A-induced osteogenic differentiation (FOP ECFCs): efficiently blocked
